From patent US3958011A, “Compositions of tri-n-propylacetic acid and salts thereof and treatment of neurological disorders with such compositions” (priority 1972, dated 1976) come the findings set out here.

For data set [1], the system named is mice. Put plainly: Maximum electroshock seizure (anticonvulsant action). It counts as in vivo, mice (OF 1). As to the method: This seizure is characterized in the mouse by extension of the back paws for 5 to 10 seconds. The extension is similar to that observed during the tonicoclonic seizures provoked by chemical convulsants such as pentylenetetrazol or strychnine.
The test was carried out on batches of 10 mice of the OF 1 strain weighing about 22 g. […] Fifteen minutes later, each animal received an electric shock of twice threshold intensity (about 60 volts).
This latter value is indicated by the symbol HD50 or hypnotic dose 50 and the efficacy index by the fraction: [formula]

The nature of data set [2]: Rota rod test (neurotoxicity). The data set is classed as in vivo. Conditions: mouse, ip, mice, intraperitoneal, 30 min after administration, read-out: NTD50 (neurotoxic dose 50) in the rota rod test. As to the method: The test used was that known as the rota rod test (BOISSIER-Therapie 1958, XIII, pp. 1074-1118). This test aims at enabling the animals' ability to coordinate their movements to be evaluated. It is carried out on batches of 10 mice each weighing about 25 g. The compound to be tested is administered by intraperitoneal route to the animals of each batch so that each batch receives a higher dose than that given to the preceding batch. Thirty minutes after administration, the mice are placed for two minutes on a wooden roller of 4.8 cm diameter which turns at the rate of 4 revolutions per minute. The roller has a rough surface to prevent the animals from slipping.
By this means, the neurotoxic dose 50 (NTD 50) can be determined, i.e. the dose of the compound with which one half of the animals can no longer stay on the roller during the period of time fixed as the reference period.
In order to obtain an activity index figure 30 minutes after administration the rota rod test described above was also performed using for comparison a known myorelaxant, namely mephenesin.
On the technique in general: The rotarod test checks motor coordination on a turning rod.

A short description of data set [3]: Acute toxicity (LD50), technique of Karber and Behrens. To be noted: mouse, in vivo, ip. As to the method: (§1) The LD50 was determined on the mouse by intraperitonel route using the technique of KARBER and BEHRENS.
For data set [4], the system named is mouse. The data set is described as above. Conditions: intraperitoneal LD50, in words. How it is done:
as §1

Data set [5] deals with mice. Kind of data set: Chimney test (tranquillizing properties). The data set is classed as in vivo. Conditions: Mus musculus, ip; 50% failed to get out of the test-tube within 30 seconds. As to the method:
This test enables two groups of factors to be evaluated namely neuromuscular factors (muscular strength, agility, coordination of movements) and psychological factors (curiosity, fright, flight instinct).
It was carried out on batches of 10 mice weighing about 25 g each. The compound to be studied was given to each batch by intraperitoneal route so that each batch received a higher dose than the preceding batch. The mice were placed, one after another, head first in a test-tube 30 cm long and calibrated in accordance with the size of the mouse so that by moving backwards the animal could get out of the tube in less than 30 seconds. The number of animals which were unable to do this was noted.

The ED50 is the midpoint of the dose-response relation. As usually defined, the LD50 is the dose expected to kill half of the subjects tested. Low values mean a more toxic substance, high ones a less toxic substance. `CCCC(CCC)(CCC)C(=O)[O-].[Na+]` [Sodium tri-n-propylacetate, sodium tri-n-propylacetate]: the ED50 is 130 mg/kg in data set [1] (Mus musculus, ip, 0.25 h, i.p., 15 min after administration, protection of 50% against tonic seizures) and 72 mg/kg in data set [5]. The “Efficacy index (HD50 compared with ED50)” value in data set [1] (electroshock ED50 versus hypnotic dose 50) amounted to 1.0. Besides, the TD50 at 0.5 h in data set [2] came out at 120 mg/kg. For the same compound, in data set [3], the LD50 came to 327 mg/kg. For the same compound, the selectivity ratio in data set [3] lay in the range of 20 to 80. Moreover, the “Acute toxicity compared with diazepam” value in data set [4] is “much less toxic than diazepam”.
